Laboratory results reported in patent US20230293614A1, “COMPOSITIONS AND METHODS OF TREATING UPS-ASSOCIATED DISEASES” (Board of Supervisors of Louisiana State University and …, priority 2020, published 2023).

System: DUB
Test: Experiment 3: DUB reporter Z-LRGG-AMC with control, 5011 and DMC-2 treated lysates
Type: biochemical
Description: Peptide used was the commercial DUB reporter [Z-LRGG-AMC (SEQ ID NO: 1)] at multiple concentrations [50-150 uM]. 1100 uL protein at 6 mg/mL for each set was given. Final protein concentration in micro-wells was 4 mg/mL. Peptide was incubated with control, 5011 treated, 1 ug/mL DMC-2, 10 ug/mL DMC-2, and 30 ug/mL DMC-2 in DUB assay buffer. Fluorometric readings were taken at different time points in plate reader. Measured at [Em 460/Ex 355]. Fluorescent signals were converted to μM/min using a calibration curve for the AMC fluorophore. Rates were plotted vs. substrate concentration (Z-LRGG-AMC peptide (SEQ ID NO: 1)) (FIG. 10). […] The curves are not perfect logarithmic curves but we can observe the trend. The results with different concentrations of DMC-2 were further plotted. When compared with control: the 5011 treatment enhances DUB activity, DMC-2 being the active part of 5011, also enhances the DUB activity. From FIG. 11, the lowest concentration of DMC2-1 μg/mL has most effect on DUB activity when compared to 30 μg/mL. Without wishing to be bound by theory, some data fluctuation with DMC-2 can occur in the 1 μg/mL range.

Structure (SMILES): COc1ccc(CCC(=O)c2ccc(O)cc2O)cc1 [DMC-2, 1-(2,4-dihydroxyphenyl)-3-(4-methoxyphenyl)propan-1-one]
- concentration with most effect on DUB activity (compared to 30 μg/mL): 1 µg/mL
- effect on DUB activity vs control (treated lysates 4 mg/mL, DMC-2 at 1, 10, 30 ug/mL): enhances
